Laboratory results taken from patent US20170089887A1, “CONTRACTILITY ASSAY” (Nano3D Biosciences, Inc, priority 2011, published 2017).
Read-outs that look alike come from different tables or passages of the source. Bridge positions count the residues as written; N and C are the ends. Square brackets hold non-standard residues; d marks the D form. Peptide text beside a SMILES is read from it. Orn = NCCC[C@H](N)C(=O)O; Mpa = O=C(O)CCS

Experiments:
[1] = cited from earlier work
[2] = test system: preterm labor; details: cited from earlier work; for Onsef of action: clinical dose per Table 1; for Delay in delivery for 48 hrs: clinical treatment of preterm labor
[3] = test system: myometrial smooth muscle cells; assay: CBiO Assay (contraction of magnetically 3D bioprinted rings); type: cell-based, human
Experimental: We developed an assay, the CBiO Assay (contractility BiO Assay) to mimic uterine contractility in vitro. The basis of this assay is one in which cells are magnetically 3D bioprinted into 3D rings (e.g., 0.125″ outer diameter, 0.0625″ inner diameter) in 384-well plates. After printing, the magnetic field is removed, and these rings contract immediately (<24 h), as cells within the ring contract, rearrange, and compact the ring.
Along with this CBiO assay, a mobile device-based imaging system (n3Dock) was used to image and measure whole plates of rings (FIG. 3). This imaging system is driven by an iPod Touch (Apple Computer, CA) that was programmed to automatically image plates at regular intervals (≧1 s) for the length of the experiment using a freely available app for download (Experimental Assistant, Nano3D Biosciences). Using the n3Dock to image rings is possible given the fine camera resolution of the iPod (5 MP, resolution=250 μm) (Timm, 2013), and the brown color of the ring imparted by the NS that provides contrast against the lightness of the surrounding media. As a result, the iPod captures images of whole plates in a compact dock that fits within most standard incubators. Of course, any smart phone or pad or tablet equipped with a camera could be used herein.
From the same tissue, cells were grown in vitro as monolayer cultures and then harvested. […]

[4] = test system: myometrial strips; assay: Wire myography of ex vivo myometrial strips in organ bath; design: species or system human; details: 1 μM-1 mM
Experimental: Ex vivo tissue was also tested for comparison to the CBiO Assay. Uterine biopsies obtained from cesarean sections were cut into myometrial strips (10×2×2 mm) mounted in an organ chamber system bath (10 mL) containing Kreb's buffer maintained at 37° C. and bubbled with 5% CO2/95% O2 to maintain the pH at 7.4. Eight uterine strips were obtained form each individual biopsy. The strips were equilibrated for 1 h starting from a resting tension of 1 g and spontaneous uterine contractility was stabilized for isometric tension recording. […] Two uterine strips were exposed to each tocolytic drug, thereby conducting duplicate experiments for each drug. […] All tocolytic doses used were based from previous human myometrial contractility studies. […] For the ex vivo tissue contractile activity, myometrial strips were mounted in a myograph organ bath system. […] The contractile inhibitory response was the area change at 5 h for the CBiO Assay, and the AUC for myography (FIG. 7). The contractile inhibitory response (CIR) in this experiment was defined as the percent change in ring image pixels before and after drug exposure. Thus, FIG. 7 reports a change in size rather than a rate. However, rates can be reported if desired.

SMILES	Cmax (Peak plasma concentration) ([1]; clinical dose per Table 1) [ng/ml^63]	Onsef of action [2] [hr^63]	Delay in delivery for 48 hrs [2]	Cmax (Peak plasma concentration) ([1]; clinical dose 50 mg oral, then 25 mg every 6 hrs, as recommended by the manufacturer) [µg/mL]	IND/NIF preference ratio (PR) ([3]; Patient 1, area change at 5 h)	IND/NIF preference ratio (PR) ([3]; Patient 2, area change at 5 h)	Onsef of action ([2]; as recommended by the manufacturer) [h]	IND/NIF preference ratio (PR) ([4]; Patient 1, AUC)	IND/NIF preference ratio (PR) ([4]; Patient 2, AUC)
CCOc1ccc(C[C@H]2NC(=O)CCSSC[C@@H](C(=O)N3CCC[C@H]3C(=O)N[C@@H](CCCN)C(=O)NCC(N)=O)NC(=O)[C@H](CC(N)=O)NC(=O)[C@H]([C@@H](C)O)NC(=O)[C@H]([C@@H](C)CC)NC2=O)cc1 [Atosiban] ([Mpa][dY](Et)ITNCP[Orn]G-NH2; disulfide 1-6)	442	1	93%^64						
COc1ccc2c(c1)c(CC(=O)O)c(C)n2C(=O)c1ccc(Cl)cc1 [Indomethacin]			90-94%^58-61	2	0.75	0.97	2	0.48	0.92
